{
  "source": "patent US5480779A",
  "about": "(priority 1988, dated 1996)",
  "origin": "cited, not measured here",
  "data": [
    {"target": "peptidyl-prolyl cis-trans-isomerase (Sus scrofa, UniProt P62936)", "sequence (P62936 whole entry)": "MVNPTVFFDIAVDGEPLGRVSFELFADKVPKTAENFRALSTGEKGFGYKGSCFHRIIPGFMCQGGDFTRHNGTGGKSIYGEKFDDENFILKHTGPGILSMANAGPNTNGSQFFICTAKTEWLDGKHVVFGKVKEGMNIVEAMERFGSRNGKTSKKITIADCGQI", "values": [
      {"compound": "O=C(O)c1cc[c]([Hg][Cl])cc1", "note": "[p-chloromercuribenzoate]", "inactivation / inhibition of the enzyme": "strongly inactivated"},
      {"compound": "CCCCCCCCCCCCOS(=O)(=O)[O-].[Na+]", "note": "[sodium dodecylsulfate]", "inactivation / inhibition of the enzyme": "strongly inactivated"},
      {"compound": "chloroiosylamidophenylbutane", "inactivation / inhibition of the enzyme": "not inhibited"}
    ]}
  ]
}
